# Experimental data from patent publication US20070135499A1 (Aerie Pharmaceuticals, Inc., priority 2005, published 2007).
# “Also recorded” adds a separate entry of the source.
# Experiments:
# [1] = molecular target: Beta 1 Adrenergic receptor (B1 wt); experiment: Transfluor assay, ISO-induced arrestin-GFP translocation to Beta 1 Adrenergic receptor; format: cell-based; details: U2OS cells
# [2] = system: Beta 2 Adrenergic receptor; experiment: cAMP accumulation in HEK-293 cells with isoproterenol; format: cell-based; details: Beta 2 Adrenergic receptor overexpressed, fixed concentration of isoproterenol, increased concentrations of compound
# From the text: This is consistent with the inhibition of GRK-2 resulting in less translocation of arrestin-GFP, less desensitization, and consequently more signaling by the B2AR. With more receptors available now on the surface of the cell, more cAMP is being generated in the presence of isoproterenol.
# hGRK-2 = molecular target: T1, hGRK-2 (Homo sapiens, UniProt P25098); experiment: luciferase-based (Kinase-Glo) biochemical kinase inhibition assay, hGRK-2; details: for Ki: luciferase assay, casein substrate, 10 μM ATP, read-out: GRK-2 inhibition, Ki class
# T1 sequence (P25098 1-689): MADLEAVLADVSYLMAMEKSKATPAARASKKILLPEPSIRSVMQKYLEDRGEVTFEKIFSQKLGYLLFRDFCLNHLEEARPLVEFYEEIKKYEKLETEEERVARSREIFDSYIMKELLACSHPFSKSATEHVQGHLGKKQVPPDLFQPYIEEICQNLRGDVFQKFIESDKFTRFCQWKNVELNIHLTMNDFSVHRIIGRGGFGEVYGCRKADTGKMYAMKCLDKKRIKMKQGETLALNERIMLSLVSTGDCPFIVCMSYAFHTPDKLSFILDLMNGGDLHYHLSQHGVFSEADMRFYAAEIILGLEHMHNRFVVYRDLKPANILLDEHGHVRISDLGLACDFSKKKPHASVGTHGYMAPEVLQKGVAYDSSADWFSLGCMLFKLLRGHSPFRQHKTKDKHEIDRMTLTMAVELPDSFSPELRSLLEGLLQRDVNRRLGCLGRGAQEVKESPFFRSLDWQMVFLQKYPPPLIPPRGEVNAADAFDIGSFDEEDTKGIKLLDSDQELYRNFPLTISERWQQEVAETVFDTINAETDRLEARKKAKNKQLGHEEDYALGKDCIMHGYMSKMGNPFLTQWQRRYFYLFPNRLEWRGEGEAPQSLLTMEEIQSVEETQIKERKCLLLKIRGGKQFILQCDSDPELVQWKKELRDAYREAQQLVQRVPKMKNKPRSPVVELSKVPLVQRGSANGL
# How it was run: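 Final conditions: 50 nM hGRK2, 20 μM casein, 10 μM ATP and 50 μM test compound in 4.5% DMSO, in HEPES pH 7.5 buffer with MgCl2, orthovanadate, CHAPS, BSA and DTT. Incubation ran 90-120 min at room temperature, targeting 20-30% ATP consumption. Remaining ATP was read by luminescence with diluted Kinase-Glo containing 0.01% trypan blue.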
# GRK-6 = GRK-6 (Homo sapiens, UniProt P43250); experiment: luciferase-based biochemical kinase inhibition assay, GRK-6; details: same luciferase assay; read-out: GRK-6 inhibition, Ki class
# Procedure: (§1) The inhibition of G-protein-coupled receptor kinases including hGRK-2 was determined for the hydrazide compounds using a biochemical assay. The inhibition of GRK-3, GRK-5 and GRK-6 was also determined using the same assay for some of the hydrazide derivatives.
# (§2) The protein kinase inhibition was determined using a biochemical assay utilizing the light emission of a luciferase reaction. The luciferase-based assay operates on the following reaction principles: [drawing 10]
# (§3) An inhibitor of GRK-2 will increase in the amount of ATP in solution, as shown. Thus, an inhibitor of GRK-2 will drive the luciferase reaction to the right, resulting in more light emitted. The amount of light emitted is proportional to the inhibition resulting from the GRK-2 inhibitor. The luciferase-based assay was also used to test some of the hydrazides for the inhibition properties towards other kinases.
# GRK-3 = molecular target: T2, GRK-3 (Homo sapiens, UniProt P35626); experiment: luciferase-based biochemical kinase inhibition assay, GRK-3; details: same luciferase assay; read-out: GRK-3 inhibition, Ki class
# T2 sequence (P35626 1-688): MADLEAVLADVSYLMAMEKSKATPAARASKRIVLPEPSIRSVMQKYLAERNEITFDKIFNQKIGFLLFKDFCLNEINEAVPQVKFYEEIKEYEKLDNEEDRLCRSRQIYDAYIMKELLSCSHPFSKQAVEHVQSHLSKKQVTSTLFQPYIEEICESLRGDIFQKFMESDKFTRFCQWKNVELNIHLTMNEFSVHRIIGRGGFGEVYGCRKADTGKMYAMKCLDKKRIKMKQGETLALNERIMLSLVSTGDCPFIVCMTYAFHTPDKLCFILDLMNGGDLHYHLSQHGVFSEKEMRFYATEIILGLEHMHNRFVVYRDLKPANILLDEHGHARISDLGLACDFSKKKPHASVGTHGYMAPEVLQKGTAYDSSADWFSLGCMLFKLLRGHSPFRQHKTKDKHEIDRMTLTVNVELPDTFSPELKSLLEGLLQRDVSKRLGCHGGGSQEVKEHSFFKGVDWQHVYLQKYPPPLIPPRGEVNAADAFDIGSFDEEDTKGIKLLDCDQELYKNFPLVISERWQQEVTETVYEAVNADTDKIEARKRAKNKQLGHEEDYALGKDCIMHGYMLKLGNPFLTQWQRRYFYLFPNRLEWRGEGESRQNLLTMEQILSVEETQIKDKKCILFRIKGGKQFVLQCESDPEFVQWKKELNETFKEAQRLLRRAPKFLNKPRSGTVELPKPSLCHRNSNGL
# Procedure: as §1, §2, §3
# mu-opioid receptor = details: U2OS cells
# [3] = molecular target: Beta 2 Adrenergic Receptor (B2 wt); experiment: Transfluor assay, isoproterenol-induced arrestin-GFP translocation to Beta 2 Adrenergic Receptor; format: cell-based; details: U2OS cells
# [4] = Topical ocular composition of Example 103 administered to the eyes; format: in vivo; details: 0.50 wt % topical composition
# Procedure: Examples of such assays are described in the following reference, incorporated herein: C. Liljebris, G. Selen, B. Resul, J. Sternschantz, and U. Hacksell, “Derivatives of 17-Phenyl-18,19,20-trinorprostaglandin F2α Isopropyl Ester: Potential Antiglaucoma Agents”, Journal of Medicinal Chemistry, Vol. 38 (2) 1995, pp. 289-304.
# Topical pharmaceutical compositions for lowering intraocular pressure are prepared by conventional methods and formulated as follows: […]
# A compound according to this invention is used as the hydrazide derivative. […]
# Sequence of GRK-6 (P43250 whole entry, species assumed): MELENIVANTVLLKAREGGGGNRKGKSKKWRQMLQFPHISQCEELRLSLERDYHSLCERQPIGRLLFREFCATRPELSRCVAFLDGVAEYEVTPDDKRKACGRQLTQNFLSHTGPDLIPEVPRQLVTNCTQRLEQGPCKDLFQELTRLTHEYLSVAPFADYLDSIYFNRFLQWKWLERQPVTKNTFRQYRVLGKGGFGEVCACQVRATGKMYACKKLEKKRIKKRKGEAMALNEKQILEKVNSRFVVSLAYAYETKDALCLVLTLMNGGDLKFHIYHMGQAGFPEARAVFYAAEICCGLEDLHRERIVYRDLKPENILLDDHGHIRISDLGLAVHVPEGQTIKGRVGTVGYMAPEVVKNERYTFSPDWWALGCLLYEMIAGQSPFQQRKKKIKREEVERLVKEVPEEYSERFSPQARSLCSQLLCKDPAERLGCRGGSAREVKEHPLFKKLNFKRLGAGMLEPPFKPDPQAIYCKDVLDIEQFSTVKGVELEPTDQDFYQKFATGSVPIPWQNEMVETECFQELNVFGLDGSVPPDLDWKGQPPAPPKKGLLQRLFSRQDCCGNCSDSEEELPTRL
compound,measurement,setting,value
3-{[1-Pyridin-4-yl-meth-(E)-ylidene-hydrazinocarbonylmethyl]-amino}-benzamide [Example 41],IC50,"[1]; 60 minute pre-incubation, ISO-induced β-arrestin translocation, read-out: IC50 of the β1 arrestin (FIG. 2)",> 10000 nM
same,inhibition of arrestin-GFP translocation to the B1 WT,[1],modest inhibition
same,accumulation of cAMP,[2],increased accumulation of cAMP
same,"inhibition of GRK-2, in words",hGRK-2,very good inhibitor of GRK-2
same,Ki,hGRK-2,10 to 100 nM
same,Ki,GRK-6,> 10000 nM
same,Ki,GRK-3,10 to 100 nM
same,inhibition of arrestin-GFP translocation to the μ opioid,mu-opioid receptor,strong inhibition
same,IC50,"mu-opioid receptor; read-out: IC50 for the μ-opioid receptor (FIG. 3), 60 minute pre-incubation, morphine-induced β-arrestin translocation",~150 nM
same,IC50,"[3]; 60 minute pre-incubation, ISO-induced β-arrestin translocation, read-out: IC50 of the β2 arrestin (FIG. 1)",4000 nM
same,inhibition of arrestin-GFP translocation to the B2 WT (F-grains),[3]; isoproterenol,stepwise reduction in translocation; also recorded: modest inhibition
"NC(=O)c1ccc(NCC(=O)N/N=C/c2c(Cl)cncc2Cl)cc1 [Example 28, 4-{[1-(3,5-Dichloro-pyridin-4-yl)-meth-(E)-ylidene-hydrazinocarbonylmethyl]-amino}-benzamide]",intraocular pressure,[4]; drop twice per day,substantially decreases intraocular pressure
same,Ki,hGRK-2,> 10000 nM
"NC(=O)c1cccc(NCC(=O)N/N=C/c2ccncc2)c1 [Example 51, 3-{[1-Pyridin-4-yl-meth-(E)-ylidene-hydrazinocarbonylmethyl]-amino}-benzamide]","hyperemia, redness and ocular irritation",[4]; drop as needed,"substantially decreases hyperemia, redness and ocular irritation"
same,Ki,hGRK-2,100 to 1000 nM
same,Ki,GRK-3,100 to 1000 nM
"O=C(CNc1cccc(C(=O)NCCN2CCOCC2)c1)N/N=C/c1ccncc1 [Example 79, N-(2-Morpholin-4-yl-ethyl)-3-{[1-pyridin-4-yl-meth-(E)-ylidene-hydrazinocarbonylmethyl]-amino}-benzamide]",intraocular pressure,[4]; drop 4 times per day,substantially decreases intraocular pressure
same,neuroprotective agent,[4]; drop 4 times per day,serves as a neuroprotective agent
same,Ki,hGRK-2,100 to 1000 nM
"Cc1ccc(Oc2cccc(NCC(=O)N/N=C/c3ccncc3)c2)cc1 [Example 85, (3-p-Tolyloxy-phenylamino)-acetic acid [1-pyridin-4-yl-meth-(E)-ylidene]-hydrazide]",allergic symptoms,[4]; drop twice per day,substantially decreases allergic symptoms
same,dry eye syndrome,[4]; drop twice per day,relieves dry eye syndrome
same,Ki,hGRK-2,10 to 100 nM
